Experimental data as given in patent US20230372498A1, “PLK1 SELECTIVE DEGRADATION INDUCING COMPOUND” (UPPTHERA, priority 2020, published 2023).
Like-named read-outs stand apart in the source and are kept apart here.

Molecular target: T1, PLK1 (Homo sapiens, UniProt P53350)
T1 construct: endogenous in cells; host or cells: HeLa
Assay: PLK1 protein degradation in HeLa cells, Western blotting (PLK1/GAPDH ratio)
Type: cell-based
Details: 6 hours compound incubation; for DC50: measured only if the grade of Dmax is A or B; for Dmax: thymidine block and release, 10 points three-fold from 3 μM, PLK1 to GAPDH ratio
Method in brief: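 Thymidine-synchronised HeLa cells (2 mM, 24 h) released 4 h into complete medium, then treated 6 h with compound in 10-point 3-fold dilutions from 3 μM. RIPA lysates (15 μg protein) run on SDS-PAGE; PLK1 Western blot normalised to GAPDH.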

T1 sequence (P53350 whole entry): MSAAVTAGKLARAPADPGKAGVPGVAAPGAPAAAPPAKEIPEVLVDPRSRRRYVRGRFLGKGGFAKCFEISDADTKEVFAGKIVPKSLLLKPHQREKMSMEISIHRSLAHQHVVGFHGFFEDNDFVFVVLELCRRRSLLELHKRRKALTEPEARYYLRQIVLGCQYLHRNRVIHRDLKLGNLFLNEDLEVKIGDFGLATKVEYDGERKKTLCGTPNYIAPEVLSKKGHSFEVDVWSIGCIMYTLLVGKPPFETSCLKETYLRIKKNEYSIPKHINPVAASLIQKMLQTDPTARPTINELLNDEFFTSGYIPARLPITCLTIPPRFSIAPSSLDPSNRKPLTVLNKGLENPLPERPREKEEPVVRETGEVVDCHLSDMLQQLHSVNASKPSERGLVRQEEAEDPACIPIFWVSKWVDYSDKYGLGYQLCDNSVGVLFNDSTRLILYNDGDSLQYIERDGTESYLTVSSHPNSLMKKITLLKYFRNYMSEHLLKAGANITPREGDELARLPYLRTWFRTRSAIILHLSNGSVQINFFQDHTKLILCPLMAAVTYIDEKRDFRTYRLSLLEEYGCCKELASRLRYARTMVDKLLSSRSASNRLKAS

SMILES | DC50 | Dmax (read-out: Dmax) | Dmax
COc1cc(C(=O)NCCCCCCc2cccc3c2CN(C2CCC(=O)NC2=O)C3=O)c(F)cc1Nc1ncc2c(n1)N(C1CCCC1)CC(F)(F)C(=O)N2C (stereo not shown) [Compound 164, 4-((9-cyclopentyl-7,7-difluoro-5-methyl-6-oxo-6,7,8,9-tetrahydro-5H-pyrimido[4,5-b][1,4]diazepin-2-yl)amino)-N-(6-(2-(2,6-dioxopiperidin-3-yl)-1-oxoisoindolin-4-yl)hexyl)-2-fluoro-5-methoxybenzamide] | ≤ 500 nM | 60 to 80% | –
COc1cc(C(=O)NC2CCN(CCOCCOCCOCCOCC(=O)N[C@H](C(=O)N3C[C@H](O)C[C@H]3C(=O)NCc3ccc(-c4scnc4C)cc3)C(C)(C)C)CC2)c(F)cc1Nc1ncc2c(n1)N(C1CCCC1)CC(F)(F)C(=O)N2C [Example 82] | – | – | C (C: less than 60%)
COc1cc(C(=O)NC2CCN(CCOCCOCCOCCOCCOCC(=O)N[C@H](C(=O)N3C[C@H](O)C[C@H]3C(=O)NCc3ccc(-c4scnc4C)cc3)C(C)(C)C)CC2)c(F)cc1Nc1ncc2c(n1)N(C1CCCC1)CC(F)(F)C(=O)N2C [Example 83] | – | – | C (C: less than 60%)
COc1cc(C(=O)NC2CCN(CCCCCCCCOCC(=O)N[C@H](C(=O)N3C[C@H](O)C[C@H]3C(=O)NCc3ccc(-c4scnc4C)cc3)C(C)(C)C)CC2)c(F)cc1Nc1ncc2c(n1)N(C1CCCC1)CC(F)(F)C(=O)N2C [Example 84] | ≤ 500 nM | – | B (B: Dmax is 80% or less and 60% or more)
COc1cc(C(=O)NC2CCN(CCOCCOc3cc(-c4scnc4C)ccc3CNC(=O)[C@@H]3C[C@@H](O)CN3C(=O)[C@@H](NC(=O)C3(F)CC3)C(C)(C)C)CC2)c(F)cc1Nc1ncc2c(n1)N(C1CCCC1)CC(F)(F)C(=O)N2C [Example 85, (2S,4R)—N-(2-(2-(2-(4-(4-((9-cyclopentyl-7,7-difluoro-5-methyl-6-oxo-6,7,8,9-tetrahydro-5H-pyrimido[4,5-b][1,4]diazepin-2-yl)amino)-2-fluoro-5-methoxybenzamido)piperidin-1-yl)ethoxy)ethoxy)-4-(4-methylthiazol-5-yl)benzyl)-1-((S)-2-(1-fluorocyclopropane-1-carboxamido)-3,3-dimethylbutanoyl)-4-hydroxypyrrolidine-2-carboxamide] | – | < 60% | –
COc1cc(C(=O)NC2CCN(CCOCCOCCOCCOc3cc(-c4scnc4C)ccc3CNC(=O)[C@@H]3C[C@@H](O)CN3C(=O)[C@@H](NC(=O)C3(F)CC3)C(C)(C)C)CC2)c(F)cc1Nc1ncc2c(n1)N(C1CCCC1)CC(F)(F)C(=O)N2C [Example 87, (2S,4R)—N-(2-(2-(2-(2-(2-(4-(4-((9-cyclopentyl-7,7-difluoro-5-methyl-6-oxo-6,7,8,9-tetrahydro-5H-pyrimido[4,5-b][1,4]diazepin-2-yl)amino)-2-fluoro-5-methoxybenzamido)piperidin-1-yl)ethoxy)ethoxy)ethoxy)ethoxy)-4-(4-methylthiazol-5-yl)benzyl)-1-((S)-2-(1-fluorocyclopropane-1-carboxamido)-3,3-dimethylbutanoyl)-4-hydroxypyrrolidine-2-carboxamide] | – | < 60% | –
COc1cc(C(=O)NC2CCN(CCCCCCCCOc3cc(-c4scnc4C)ccc3CNC(=O)[C@@H]3C[C@@H](O)CN3C(=O)[C@@H](NC(=O)C3(F)CC3)C(C)(C)C)CC2)c(F)cc1Nc1ncc2c(n1)N(C1CCCC1)CC(F)(F)C(=O)N2C [Example 89, (2S,4R)—N-(2-((8-(4-(4-((9-cyclopentyl-7,7-difluoro-5-methyl-6-oxo-6,7,8,9-tetrahydro-5H-pyrimido[4,5-b][1,4]diazepin-2-yl)amino)-2-fluoro-5-methoxybenzamido)piperidin-1-yl)octyl)oxy)-4-(4-methylthiazol-5-yl)benzyl)-1-((S)-2-(1-fluorocyclopropane-1-carboxamido)-3,3-dimethylbutanoyl)-4-hydroxypyrrolidine-2-carboxamide] | ≤ 500 nM | 60 to 80% | –
CN1C(=O)C(F)(F)CN(C2CCCC2)c2nc(Nc3cc(F)c(C(=O)NC4CCN(CCOCCOCCNc5cccc6c5C(=O)N(C5CCC(=O)NC5=O)C6=O)CC4)cc3OC3CCC3)ncc21 (stereo not shown) [Example 93, 5-cyclobutoxy-4-((9-cyclopentyl-7,7-difluoro-5-methyl-6-oxo-6,7,8,9-tetrahydro-5H-pyrimido[4,5-b][1,4]diazepin-2-yl)amino)-N-(1-(2-(2-(2-((2-(2,6-dioxopiperidin-3-yl)-1,3-dioxoisoindolin-4-yl)amino)ethoxy)ethoxy)ethyl)piperidin-4-yl)-2-fluorobenzamide] | ≤ 50 nM | ≥ 80% | –
CCC(C)Oc1cc(C(=O)NC2CCN(CCOCCOCCNc3cccc4c3C(=O)N(C3CCC(=O)NC3=O)C4=O)CC2)c(F)cc1Nc1ncc2c(n1)N(C1CCCC1)CC(F)(F)C(=O)N2C (stereo not shown) [Example 94, 5-(sec-butoxy)-4-((9-cyclopentyl-7,7-difluoro-5-methyl-6-oxo-6,7,8,9-tetrahydro-5H-pyrimido[4,5-b][1,4]diazepin-2-yl)amino)-N-(1-(2-(2-(2-((2-(2,6-dioxopiperidin-3-yl)-1,3-dioxoisoindolin-4-yl)amino)ethoxy)ethoxy)ethyl)piperidin-4-yl)-2-fluorobenzamide] | > 500 nM | 60 to 80% | –

The next lines start with results.

DC50 | Dmax (read-out: Dmax) | SMILES | Dmax
≤ 50 nM | ≥ 80% | COc1cc(C(=O)NC2CC3(C2)CN(C(=O)CCCCNc2cccc4c2C(=O)N(C2CCC(=O)NC2=O)C4=O)C3)c(F)cc1Nc1ncc2c(n1)N(C1CCCC1)CC(F)(F)C(=O)N2C (stereo not shown) [Compound 161, 4-((9-cyclopentyl-7,7-difluoro-5-methyl-6-oxo-6,7,8,9-tetrahydro-5H-pyrimido[4,5-b][1,4]diazepin-2-yl)amino)-N-(2-(5-((2-(2,6-dioxopiperidin-3-yl)-1,3-dioxoisoindolin-4-yl)amino)pentanoyl)-2-azaspiro[3.3]heptan-6-yl)-2-fluoro-5-methoxybenzamide] | –
≤ 50 nM | ≥ 80% | COc1cc(C(=O)NCCCCCNC(=O)COc2cccc3c2C(=O)N(C2CCC(=O)NC2=O)C3=O)c(F)cc1Nc1ncc2c(n1)N(C1CCCC1)CC(F)(F)C(=O)N2C (stereo not shown) [Compound 162, 4-((9-cyclopentyl-7,7-difluoro-5-methyl-6-oxo-6,7,8,9-tetrahydro-5H-pyrimido[4,5-b][1,4]diazepin-2-yl)amino)-N-(5-(2-((2-(2,6-dioxopiperidin-3-yl)-1,3-dioxoisoindolin-4-yl)oxy)acetamido)pentyl)-2-fluoro-5-methoxybenzamide] | –
≤ 500 nM | 60 to 80% | COc1cc(C(=O)NCCOCCOCCNc2ccc3c(c2)C(=O)N(C2CCC(=O)NC2=O)C3=O)c(F)cc1Nc1ncc2c(n1)N(C1CCCC1)CC(F)(F)C(=O)N2C (stereo not shown) [Compound 163, 4-((9-cyclopentyl-7,7-difluoro-5-methyl-6-oxo-6,7,8,9-tetrahydro-5H-pyrimido[4,5-b][1,4]diazepin-2-yl)amino)-N-(2-(2-(2-((2-(2,6-dioxopiperidin-3-yl)-1,3-dioxoisoindolin-5-yl)amino)ethoxy)ethoxy)ethyl)-2-fluoro-5-methoxybenzamide] | –
≤ 500 nM | 60 to 80% | CCOc1cc(C(=O)NC2CCN(CCOCCOCCNc3cccc4c3C(=O)N(C3CCC(=O)NC3=O)C4=O)CC2)c(F)cc1Nc1ncc2c(n1)N(C1CCCC1)CC(F)(F)C(=O)N2C (stereo not shown) [Example 90, 4-((9-cyclopentyl-7,7-difluoro-5-methyl-6-oxo-6,7,8,9-tetrahydro-5H-pyrimido[4,5-b][1,4]diazepin-2-yl)amino)-N-(1-(2-(2-(2-((2-(2,6-dioxopiperidin-3-yl)-1,3-dioxoisoindolin-4-yl)amino)ethoxy)ethoxy)ethyl)piperidin-4-yl)-5-ethoxy-2-fluorobenzamide] | –
≤ 500 nM | 60 to 80% | CC(C)Oc1cc(C(=O)NC2CCN(CCOCCOCCNc3cccc4c3C(=O)N(C3CCC(=O)NC3=O)C4=O)CC2)c(F)cc1Nc1ncc2c(n1)N(C1CCCC1)CC(F)(F)C(=O)N2C (stereo not shown) [Example 91, 4-((9-cyclopentyl-7,7-difluoro-5-methyl-6-oxo-6,7,8,9-tetrahydro-5H-pyrimido[4,5-b][1,4]diazepin-2-yl)amino)-N-(1-(2-(2-(2-((2-(2,6-dioxopiperidin-3-yl)-1,3-dioxoisoindolin-4-yl)amino)ethoxy)ethoxy)ethyl)piperidin-4-yl)-2-fluoro-5-isopropoxybenzamide] | –
≤ 50 nM | ≥ 80% | CN1C(=O)C(F)(F)CN(C2CCCC2)c2nc(Nc3cc(F)c(C(=O)NC4CCN(CCOCCOCCNc5cccc6c5C(=O)N(C5CCC(=O)NC5=O)C6=O)CC4)cc3OC3CC3)ncc21 (stereo not shown) [Example 92, 4-((9-cyclopentyl-7,7-difluoro-5-methyl-6-oxo-6,7,8,9-tetrahydro-5H-pyrimido[4,5-b][1,4]diazepin-2-yl)amino)-5-cyclopropoxy-N-(1-(2-(2-(2-((2-(2,6-dioxopiperidin-3-yl)-1,3-dioxoisoindolin-4-yl)amino)ethoxy)ethoxy)ethyl)piperidin-4-yl)-2-fluorobenzamide] | –
> 500 nM | 60 to 80% | CN1C(=O)C(F)(F)CN(C2CCCC2)c2nc(Nc3cc(F)c(C(=O)NC4CCN(CCOCCOCCNc5cccc6c5C(=O)N(C5CCC(=O)NC5=O)C6=O)CC4)cc3OC3CCCC3)ncc21 (stereo not shown) [Example 95, 4-((9-cyclopentyl-7,7-difluoro-5-methyl-6-oxo-6,7,8,9-tetrahydro-5H-pyrimido[4,5-b][1,4]diazepin-2-yl)amino)-5-(cyclopentyloxy)-N-(1-(2-(2-(2-((2-(2,6-dioxopiperidin-3-yl)-1,3-dioxoisoindolin-4-yl)amino)ethoxy)ethoxy)ethyl)piperidin-4-yl)-2-fluorobenzamide] | –
